Experimental data reported in US6506876B1, “LTA4 hydrolase inhibitor pharmaceutical compositions and methods of use” (G.D. Searle & Co., priority 1994, dated 2003).
Where two headings read alike, the source gives them in different places.

Columns and labels:
[1] = system: LTB4 production in mouse blood (LTA4 hydrolase); test: Ex vivo LTB4 production by calcium ionophore stimulated mouse blood after oral dosing; assay type: in vivo
Experimental: Ex Vivo LTB4 and Thromboxane Production by Calcium Ionophore Stimulated Mouse Blood for LTA4 Hydrolase Inhibitor Activity
Leukotriene A4 hydrolase inhibitor compounds of the present invention were diluted to a predetermined concentration in phosphate buffered saline containing 2% DMSO and 1% Tween 80. The compounds were administered by oral gavage to adult male outbred mice weighing approximately 20-30 gm at a dose of 10 mg/kg body weight. (Compounds given at a dose of 50 mg/kg body weight are designtated in following Table by the symbol, *.) Sixty (60) minutes after administration of an LTA4 inhibitor compound of the invention, blood was collected (into heparin-containing tubes) from the retroorbital sinus. […] The mixture was incubated for 10 minutes at 37° C. in a humidified incubator. The reaction was terminated by centrifugation (833 g, 10 minutes at 4° C.). Supernatants were analyzed for LTB4 and thromboxane by commercially available enzyme-linked immunoassays (Caymen Chemical Co., Ann Arbor, Mich.] in accordance with the manufacturer's instructions. The percent inhibition was determined by comparison to animals treated identically except that the solution admininstered by oral gavage was devoid of inhibitor compound.

[2] = molecular target: T1, recombinant human LTA4 hydrolase (rhLTA4H) (Homo sapiens, UniProt P09960); test: Recombinant human LTA4 hydrolase assay for LTA4 hydrolase inhibitor activity; details: for IC50: Recombinant Human LTA4 Hydrolase Assay IC50 LTA4H
T1 sequence (P09960 1-611): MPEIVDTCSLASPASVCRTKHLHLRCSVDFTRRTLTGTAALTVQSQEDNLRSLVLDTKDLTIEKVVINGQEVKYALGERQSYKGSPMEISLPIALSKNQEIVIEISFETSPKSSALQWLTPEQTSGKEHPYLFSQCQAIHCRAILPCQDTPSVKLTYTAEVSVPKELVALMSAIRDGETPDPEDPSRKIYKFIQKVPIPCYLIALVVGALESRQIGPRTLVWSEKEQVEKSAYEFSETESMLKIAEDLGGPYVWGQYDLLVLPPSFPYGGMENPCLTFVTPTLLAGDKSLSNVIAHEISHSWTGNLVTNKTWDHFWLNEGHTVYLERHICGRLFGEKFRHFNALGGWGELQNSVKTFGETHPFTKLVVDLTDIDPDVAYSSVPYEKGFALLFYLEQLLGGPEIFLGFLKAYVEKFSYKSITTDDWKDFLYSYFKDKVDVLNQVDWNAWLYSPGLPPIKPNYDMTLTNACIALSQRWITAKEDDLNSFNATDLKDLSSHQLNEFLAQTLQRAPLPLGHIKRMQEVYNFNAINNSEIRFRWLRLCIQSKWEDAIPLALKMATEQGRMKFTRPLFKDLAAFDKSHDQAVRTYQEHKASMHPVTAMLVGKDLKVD
Experimental: One or more predetermined amounts of a compound of the invention were incubated in assay buffer (0.1 M potassium phosphate, 5 mg/ml fatty acid free BSA, 10% DMSO, pH 7.4) for 10 minutes at room temperature with 250 ng of recombinant hLTA4H to allow binding, if any, between the enzyme and inhibitor. The stock enzyme solution was 1 mg/ml LTA4 hydrolase, 50 mM Tris, pH 8.0, 150 mM NaCl, 2.5 mM beta-mercaptoethanol, 50% glycerol. […] Each reaction was carried out at room temperature for 10 minutes. The reaction was stopped by diluting 25 μl of the reaction mixture with 500 μl of the assay buffer without DMSO. LTB4 was quantified in the diluted sample by a commercially available enzyme-linked immunoassay [Caymen Chemical Co., Ann Arbor, Mich.] using the method recommended in the manufacturer's instructions and compared to the amount of LTB4 produced in a negative control (i.e., essentially identical conditions except without addition of an inhibitor compound). The IC50 was routinely calculated from the data produced.

[3] = mouse, oral gavage, 1 hour after administration of 10 mg/kg; read-out: Murine Ex Vivo LTB4 Inhibition % I LTB4
[4] = Mus musculus, po, 1 h, read-out: Murine Ex Vivo LTB4 Inhibition % I LTB4
[5] = Mus musculus, po, 1 h; read-out: Murine Ex Vivo LTB4 Inhibition % I LTB4

Row | SMILES | inhibition in vivo at 10 mg/kg [1, 3] [%] | IC50 ([2]; recombinant hLTA4H) [nM] | other results
1 | C[C@@H]1C[C@H](C(N)=O)CCN1CCOc1ccc(Cc2ccccc2)cc1 (relative stereo) [Example 297] | 63 | 120 | –
2 | C[C@H]1C[C@@H](O)CCN1CCOc1ccc(Cc2ccccc2)cc1 (relative stereo) [Example 465] | 38 | 300 | –
3 | CC(=O)N[C@@H]1CCN(CCOc2ccc(Cc3ccccc3)cc2)[C@@H](C)C1 (relative stereo) [Example 467] | 71 | 60 | –
4 | c1ccc(Cc2ccc(OCCCn3cnc4ncccc43)cc2)cc1 [341 B] | 29 | 140 | –
5 | c1ccc(COc2ccc(OCCn3cnc4ncccc43)cc2)cc1 [346 B] | 23 | 1900 | –
6 | c1ccc(COc2ccc(OCCn3cnc4ccncc43)cc2)cc1 [347 A] | 34 | 1800 | –
7 | c1ccc(COc2ccc(OCCn3cnc4cnccc43)cc2)cc1 [347 B] | 43 | 1900 | –
8 | c1ccc(COc2ccc(OCCn3ccc4ncnc-4c3)cc2)cc1 [347 C] | 52 | 5 | –
9 | c1ccc(Oc2ccc(OCCn3cnc4cccnc43)cc2)cc1 [348 A] | 42 | 4600 | –
10 | c1ccc(Oc2ccc(OCCn3cnc4ncccc43)cc2)cc1 [348 B] | 22 | 440 | –
11 | c1ccc(Oc2ccc(OCCn3cccc4ncnc3-4)cc2)cc1 [348 C] | 77 | 290 | –
12 | c1ccc(Oc2ccc(OCCn3cnc4ccncc43)cc2)cc1 [349 A] | 78.5 | 480 | –
13 | c1ccc(Oc2ccc(OCCn3cnc4cnccc43)cc2)cc1 [349 B] | 48 | 300 | –
14 | c1ccc(Oc2ccc(OCCn3ccc4ncnc-4c3)cc2)cc1 [349 C] | 52 | 13 | –
15 | c1ccc(Oc2ccc(OCCCn3cnc4ncccc43)cc2)cc1 [350 B] | 38 | 550 | –
16 | c1ccc(Oc2ccc(OCCCn3cccc4ncnc3-4)cc2)cc1 [350 C] | 35 | 620 | –
17 | c1ccc(Oc2ccc(OCCCn3ccc4ncnc-4c3)cc2)cc1 [351 C] | 42 | 43 | –
18 | Fc1ccc(Oc2ccc(OCCn3cnc4ncccc43)cc2)cc1 [354 B] | 32 | 280 | –
19 | Fc1ccc(Oc2ccc(OCCn3cccc4ncnc3-4)cc2)cc1 [354 C] | 6 | 480 | –
20 | Fc1ccc(Oc2ccc(OCCn3cnc4ccncc43)cc2)cc1 [355 A] | 44 | 1370 | –
21 | Fc1ccc(Oc2ccc(OCCn3cnc4cnccc43)cc2)cc1 [355 B] | 37 | 870 | –
22 | Fc1ccc(Oc2ccc(OCCn3ccc4ncnc-4c3)cc2)cc1 [355 C] | 48 | 28 | –

Row | SMILES | inhibition in vivo at 10 mg/kg [1, 3] [%] | IC50 ([2]; recombinant hLTA4H) [nM] | other results
23 | c1ccc(Cc2ccc(OCCCn3cnc4ccncc43)cc2)cc1 [356 A] | 14 | 350 | –
24 | c1ccc(Cc2ccc(OCCCn3cnc4cnccc43)cc2)cc1 [356 B] | 33 | 170 | –
25 | c1ccc(Cc2ccc(OCCCn3ccc4ncnc-4c3)cc2)cc1 [356 C] | 48 | 100 | –
26 | c1ccc(Cc2ccc(OCCn3cnc4ncncc43)cc2)cc1 [357 A] | – | – | inhibition in vivo at 10 mg/kg [1, 4]: 57%; IC50 [2]: 47 nM
27 | c1ccc(Oc2ccc(OCCN3CCCC3)cc2)cc1 [Example 44] | – | – | inhibition in vivo at 10 mg/kg [1, 4]: 25%
28 | c1nc(Cc2ccc(OCCN3CCCC3)cc2)cs1 [Example 49, 4-[[4-[2-(1-pyrrolidinyl)ethoxy]phenyl]methyl]thiazole] | – | – | inhibition in vivo at 10 mg/kg [1, 4]: 46%
29 | FC(F)(c1ccccc1)c1ccc(OCCN2CCCC2)cc1 [Example 67, 1-[2-[4-[(difluoro)phenylmethyl]phenoxy]ethyl]pyrrolidine] | – | – | Murine Ex Vivo LTB4 Inhibition % I LTB4 ([1]; mouse, oral gavage, 1 hour after administration of 10 mg/kg): 0%
30 | c1ccc(Cc2ccc(OCCN3CCCC3)nc2)cc1 [Example 112] | – | – | inhibition in vivo at 50 mg/kg [1, 4]: 82%
31 | c1csc(Cc2ccc(OCCN3CCCC3)cc2)n1 [Example 121] | – | – | inhibition in vivo at 10 mg/kg [1, 4]: 48%
32 | c1ncc(Cc2ccc(OCCN3CCCC3)cc2)s1 [Example 122] | – | – | inhibition in vivo at 10 mg/kg [1, 4]: 57%
33 | c1cncc(Cc2ccc(OCCN3CCCC3)cc2)c1 [Example 125] | – | – | inhibition in vivo at 10 mg/kg [1, 4]: 46%
34 | c1cc(Cc2ccc(OCCN3CCCC3)cc2)cs1 [Example 134] | – | – | inhibition in vivo at 10 mg/kg [1, 4]: 63%
35 | COC(=O)CC1CCN(CCOc2ccc(Cc3ccccc3)cc2)C1 (stereo not drawn) [Example 275] | 75 | – | –
36 | COC(=O)C1CCN(CCOc2ccc(Cc3ccccc3)cc2)C1 (stereo not drawn) [Example 276] | 75 | – | –
37 | COC(=O)CC1CC2CC1CN2CCOc1ccc(Cc2ccccc2)cc1 (stereo not drawn) [Example 304] | – | – | inhibition in vivo at 10 mg/kg [1, 4]: 80%
38 | CN(CCCOc1ccc(Cc2ccc(F)cc2)cc1)CCC(=O)O [Example 336] | – | – | inhibition in vivo at 10 mg/kg [1, 5]: 99%
39 | c1ccc(Cc2ccc(OCCN3CCCCC3)cc2)cc1 [Example 401] | – | – | inhibition in vivo at 10 mg/kg [1, 4]: 23%
40 | CC1CCCC(C)N1CCOc1ccc(Cc2ccccc2)cc1 (stereo not drawn) [Example 402] | – | – | inhibition in vivo at 10 mg/kg [1, 4]: 58%
41 | C#CC(CC(=O)OCC)NCCOc1ccc(Cc2ccccc2)cc1 (stereo not drawn) [Example 408] | – | – | inhibition at 100 µM ([2]; read-out: Recombinant Human LTA4 Hydrolase Assay, % at 100 μM): 76%
42 | C=CCN(CCCOc1ccc(Cc2ccccc2)cc1)CCC(=O)OCc1ccccc1 [Example 409] | – | 12000 | –
43 | C=CCN(CCCCOc1ccc(Cc2ccccc2)cc1)CCC(=O)OCC [Example 410, Ethyl [[4-[4-(Phenylmethyl)phenoxyl]-butyl](2-propenyl)amino]propanoate] | – | 33000 | –
44 | CN(CCCOc1ccc(Cc2ccccc2)cc1)CCC(=O)OCc1ccccc1 [Example 411] | – | 2400 | –

Row | SMILES | inhibition in vivo at 10 mg/kg [1, 3] [%] | IC50 ([2]; recombinant hLTA4H) [nM] | other results
45 | CCOC(=O)CCN(C)CCCOc1ccc(Cc2ccccc2)cc1 [Example 412] | 72 | – | –
46 | CCOC(=O)CCN(CCCOc1ccc(Cc2ccccc2)cc1)Cc1cccnc1 [Example 414] | – | 11000 | –
47 | CCOC(=O)CCN(C)CCCCOc1ccc(Cc2ccccc2)cc1 [Example 415] | – | 5000 | –
48 | CC(CN(C)CCCOc1ccc(Cc2ccccc2)cc1)C(=O)OCc1ccccc1 (stereo not drawn) [Example 417] | – | 4300 | –
49 | CN(CCCOc1ccc(Cc2ccccc2)cc1)CC(C)(C)C(=O)OCc1ccccc1 [Example 418] | – | 12000 | –
50 | CNC(=O)C1CCN(CCOc2ccc(Cc3ccccc3)cc2)CC1 [Example 420] | – | – | inhibition in vivo at 10 mg/kg [1, 5]: 93%
51 | NC(=O)CCNC(=O)C1CCN(CCOc2ccc(Cc3ccccc3)cc2)CC1 [Example 421] | – | 410 | –
52 | NC(=O)CCNCCCOc1ccc(Cc2ccccc2)cc1 [Example 423] | – | 330 | –
53 | NC(=O)CC1CCN(CCOc2ccc(Cc3ccccc3)cc2)C1 (stereo not drawn) [Example 426] | 40 | – | –
54 | O=C(O)C1CCN(CCOc2ccc(Cc3cccc(F)c3)cc2)CC1 [Example 436] | – | 720 | –
55 | O=C(O)C1CCN(CCOc2ccc(Cc3ccc(F)cc3)cc2)CC1 [Example 438] | – | 3200 | –
56 | O=C(O)C1CCN(CCOc2ccc(Cc3ccsc3)cc2)CC1 [Example 439] | – | 18000 | –
57 | COC(=O)C1CC2CC1CN2CCOc1ccc(Cc2ccccc2)cc1 (stereo not drawn) [Example 440] | – | 30 | –
58 | CC1CC(C#N)CCN1CCOc1ccc(Cc2ccccc2)cc1 (stereo not drawn) [Example 444] | – | 300 | –
59 | CC1CC(C(N)=NO)CCN1CCOc1ccc(Cc2ccccc2)cc1 (stereo not drawn) [Example 445] | – | 330 | –
60 | N=C(N)C1CCN(CCOc2ccc(Cc3ccccc3)cc2)CC1 [Example 449] | – | 140 | –
61 | c1ccc(Cc2ccc(OCCN3CCC(c4nnn[nH]4)CC3)cc2)cc1 [Example 450] | – | – | inhibition in vivo at 10 mg/kg [1, 4]: 91%
62 | NC(=S)N1CCN(CCOc2ccc(Cc3ccccc3)cc2)CC1 [Example 458] | – | 560 | –
63 | CS(=O)(=O)N1CCN(CCOc2ccc(Cc3ccccc3)cc2)CC1 [Example 460] | – | 84000 | –
64 | COC(=O)C1CC2CC1CN(CCOc1ccc(Cc3ccccc3)cc1)C2 (stereo not drawn) [Example 504] | – | 29 | –
